Patent publication US5656662A, “Synthesis of optically pure 4-alkenyl- or 4-alkanyl-2-hydroxytetronic acids” (The Ohio State University Research Foundation, priority 1995, dated 1997)

Tests used:
Assay type in all cases: cell-based
peptidoleukotrienes = test: Peptidoleukotriene production by purified human monocytes; design: key: NE: No effect; INHIB: Inhibition; STIM: Stimulation; IC40: 40% Inhibitory Concentration; EC50: 50% Effective Concentration; TC: Tolerated Concentration; IA: Interferes with Assay
Procedure: This procedure measures the ability of test compounds to modulate the amount of peptidoleukotrienes produced by purified human monocytes. Compounds are tested for their ability to downregulate the secretion of peptidoleukotrienes from activated monocytes, or upregulate secretion of peptidoleukotrienes from unstimulated monocytes. Test compounds are incubated for ninety minutes with purified human monocytes at four dilutions over a range of three log10 concentrations. Where appropriate, zymosan is used to stimulate the monocytes.
The level of peptidoleukotrienes in the resultant supernatants is quantitated by immunoassay performed in a 96 well format. Peptidoleukotriene levels modulated by unknown compounds are determined by interpolation from a standard curve. All compounds are tested in duplicate with controls and standards.

tissue factor (TF) = test: Membrane bound tissue factor production from purified human monocytes; design: key to EFFECT on TISSUE FACTOR: NE: No effect; INHIB: Inhibition; STIM: Stimulation; IC40: 40% Inhibitory Concentration; EC50: 50% Effective Concentration; TC: Tolerated Concentration; IA: Interferes with Assay
Procedure: This assay determines the effect of test compounds on the production of membrane bound tissue factor (TF) from purified human monocytes. Compounds are tested for their ability to downregulate the production of TF in activated monocytes, or upregulate production of TF in unstimulated monocytes. Test compounds are incubated for sixteen hours with purified human monocytes at four dilutions over a range of three log10 concentrations. Where appropriate, lipopolysaccharide (LPS) is used to stimulate the monocytes.
After the above period of incubation, medium is aspirated from the monocytes, and the cells are solubilized in Triton-X 100. The level of TF in the soluble fraction is quantitated in a solid phase Enzyme-linked Immunoassay (EIA) performed in a 96 well format. TF present in the samples is captured by a specific monoclonal antibody immobilized on the well, and detected using a biotinylated antibody fragment specific for bound TF, followed by streptavidin conjugated to horseradish peroxidase and an appropriate substrate. The levels of TF are determined by interpolation of the resultant color change in the substrate from a standard curve. All supernatants are tested in duplicate with controls and standards.

superoxide anion = test: Superoxide anion release from purified human monocytes; design: key: NE: No effect; INHIB: Inhibition; STIM: Stimulation; IC40: 40% Inhibitory Concentration; EC50: 50% Effective Concentration; TC: Tolerated Concentration; IA: Interferes with Assay; conditions: zymosan
Procedure: (§1) This assay measures the ability of the test compound to modulate the ability of purified human monocytes to release superoxide anions in response to a zymosan. Compounds are tested at four dilutions over a range of three log10 concentrations. Monocyte-compound cultures are treated with zymosan to stimulate anion production. The amount of superoxide anion produced is determined by the culture's ability to reduce cytochrome C, as measured colorimetrically. The assay is carried out in a 96-well format in triplicate and results are expressed in relation to baseline unstimulated and maximum controls. Appropriate reference controls are run with each assay.
as §1, with “minimum” for “maximum”

[1] = tested on: normal human mononuclear cells; test: PHA mitogen-stimulated cell proliferation; design: key: NE: No effect; INHIB: Inhibition; STIM: Stimulation; IC40: 40% Inhibitory Concentration; EC50: 50% Effective Concentration; TC: Tolerated Concentration; IA: Interferes with Assay
Procedure: (§2) The purpose of this procedure is to determine the effect of test compounds on Mixed Lymphocyte Reaction and Mitogen-Induced Proliferation of normal human mononuclear cells.
(§3) Procedure for Cell Proliferation: Peripheral blood mononuclear cells (PBMNC) are added to a 96-well cell culture plate. Compounds are tested at four dilutions, in quadruplicates, over a range of three log10 concentrations along with negative an inhibitory controls. The test compounds are incubated with the cells for one hour, phytohemagglutinin (PHA) is then added to all reactive test wells and the cultures are incubated for three days. The cultures are then pulsed with ^3 H incorporation is then determined with a Wallac Betaplate counter.
as §3, with “incubated with,” for “incubated with”, “for thee” for “for three”

[2] = tested on: normal human mononuclear cells; test: Two Way Mixed Lymphocyte Reaction; design: key: NE: No effect; INHIB: Inhibition; STIM: Stimulation; IC40: 40% Inhibitory Concentration; EC50: 50% Effective Concentration; TC: Tolerated Concentration; IA: Interferes with Assay
Procedure: as §2
Procedure for Two Way Mixed Lymphocyte Reaction: PBMNC from two different donors are added to a 96-well cell culture plate. Four dilutions of test compounds, over a range of three log10 in quadruplicate, along with negative and inhibitory controls are then added to the plate and incubated for six days. Cultures are subsequently pulsed, harvested, and counted as above.

purified human monocytes = test: Chemotactic response of purified human monocytes; design: key: NE: No effect; INHIB: Inhibition; STIM: Stimulation; IC40: 40% Inhibitory Concentration; EC50: 50% Effective Concentration; TC: Tolerated Concentration; IA: Interferes with Assay; conditions: STIMULATED
Procedure: This assay measures the ability of test compounds to modulate the chemotactic response of purified human monocytes in response to a chemoattractant. Compounds are tested at four dilutions over a range of three log10 concentrations. The test compounds are combined with monocytes labeled with a fluorescent indicator and placed in the top wells of a chemotaxis chamber, above an optimized concentration of a monocyte chemoattractant placed in the wells below, and separated by a microporous filter. After sixty minutes, the migration of cells through the filter is quantified flurorometrically, and expressed in relation to spontaneous and maximum controls. All tests are carried out in triplicate.

For `CCCCCCCCCCCCCC/C=C\CC[C@@H]1OC(=O)C(O)=C1O` [(S)-3,4-Dihydroxy-5-[(Z)-3-octadecenyl]-2(5H)-furanone], the “EFFECT on PEPTIDOLEUKOTRIENES” value (peptidoleukotrienes; STIMULATED) was “NE”, the “EFFECT on PEPTIDOLEUKOTRIENES” value (peptidoleukotrienes; UNSTIMULATED) was “NE” and the EC50 (tissue factor (TF); Homo sapiens, Monocyte, STIMULATED, STIM) was 35 µM. For the same compound, the “EFFECT on TISSUE FACTOR” value (tissue factor (TF); STIMULATED) was “STIM”, the “EFFECT on TISSUE FACTOR” value (tissue factor (TF); UNSTIMULATED) was “NE” and the “EFFECT on SUPEROXIDE” value (superoxide anion) was “IA”. The “EFFECT on PHA” value [1] was “NE”, the “EFFECT on MLR” value [2] was “NE” and the “EFFECT on CHEMOTAXIS” value (purified human monocytes) was “NE”.
